Our source for the IC50 values is patent US8901118B2, “Compounds and methods for kinase modulation, and indications therefor” (Plexxikon Inc., priority 2010, dated 2014).

pIC50: −log10 of the molar value. Some results are limits rather than exact numbers.

For experiment [1], the target named is T1, BCR-KIT BaF3 cells (Homo sapiens, UniProt P10721).
T1 construct: fused on or other part: P11274 (Breakpoint cluster region protein)
The experiment in a line: BaF3 BCR-KIT cell proliferation assay (ATPlite). The format is cell-based. The settings on record: read-out: Inhibition of Cell Proliferation IC50, BCR/BaF3 Kit. As to the method:
Compounds are assessed in a variety of cell based assays. For example BaF3 cells engineered with any of BCR-FMS, BCR-KIT, BCR-FLT3, BCR-NTRK1, BCR-NTRK2, and BCR-NTRK3, are used in cell proliferation assays to assess inhibitory activity of Fms, Kit, Flt-3, TrkA, TrkB, and TrkC, respectively. An MV-4-11 (leukemia) cell proliferation assay is used to assess inhibitory activity in Flt-3, and SKNSH (human neuroblastoma) cell proliferation assay is used to assess efficacy of Fms/Trk inhibitors. Additional cells may be assayed similarly to assess the efficacy of Fms/Trk inhibitors, such as MiaPaCa (human pancreatic cancer) and Capan-1 (human pancreatic carcinoma) cells. Reagent and assay conditions are as follows: • BaF3 cells: • Maintained in RPMI containing 10% FBS, 1% PenStrep, 1% NEAA, and 1% L-Glutamine, supplemented with 1 mg/mL G418 and 5% WEHI-CM (or recombinant murine IL-3). • Confluent cells are split 1:50 to 1:100 every 3-4 days. • MV-4-11 cells: • Maintained in Iscove's Modified Dulbecco's Medium containing 10% FBS. • Confluent cells are split 1:4 every 3-4 days. • SKNSH cells: RPMI containing 10% FBS. On day 1, cells are counted, then centrifuged in a conical tube for 5 minutes at 1000 rpm. The supernatant is removed and cells are re-suspended as follows: • BaF3: resuspend in growth media +1 mg/mL G418 (without WEHFIL-3) to 2×10^5 cells/mL. • MV-4-11: resuspend in growth media to 5×10^5 cells/mL. • SKNSH: resuspend in growth media to 2×10^4 cells/mL. The cells are plated (50 μL, 150 μL for SKNSH cells) in each well of a 96-well dish (Corning 3610) and incubated at 37° C. in 5% CO2 overnight, cells plated to a final concentration of cells as follows: • BaF3: 10,000 cells per well. • MV-4-11: 25,000 cells per well. • SKNSH: 3,000 cells per well. On day 2, compound at a maximum concentration of 5 mM is serially diluted 1:3 for a total of 8 point titration with DMSO as a control. A 1 μL aliquot of each dilution point is added to 249 μL growth media and 50 μL is added to a well containing cells, providing 10 μM compound for the maximum concentration point. The cells are incubated for 3 days at 37° C. in 5% CO2. For SKNSH cells, a 0.75 μL aliquot of appropriate dilution in DMSO is added to 150 μL of cells. On day 5, ATPlite 1 step Luminescence Assay System (Perkin Elmer #6016739) is brought to room temperature along with the cell cultures. ATPlite is added to each well as follows: • BaF3: 25 μL per well. • MV-4-11: 40 μL per well. • SKNSH: 20 μL per well. The cells are incubated at room temperature for 10 minutes, then luminescence is read on Safire reader. The measured luminescence correlates directly with cell number, such that the reading as a function of compound concentration is used to determine the IC50 value.
It is understood that the results of these assays may vary as assay conditions are varied. Inhibition levels determined under the conditions described herein represent a relative activity for the compounds tested under the specific conditions employed. The cell based assays are likely to show variability due to the complexity of the system and the sensitivity thereof to any changes in the assay conditions. […] Results for compounds that are tested and show substantially no inhibition below the highest tested concentration are represented as “-” in the tables below. In some instances, the compounds were not tested in all of the assays, or assay results were not valid, as indicated by NA in the tables below.

In experiment [2] the target is T2, CYP1A2 (Homo sapiens, UniProt P05177).
T2 sequence (P05177 1-516): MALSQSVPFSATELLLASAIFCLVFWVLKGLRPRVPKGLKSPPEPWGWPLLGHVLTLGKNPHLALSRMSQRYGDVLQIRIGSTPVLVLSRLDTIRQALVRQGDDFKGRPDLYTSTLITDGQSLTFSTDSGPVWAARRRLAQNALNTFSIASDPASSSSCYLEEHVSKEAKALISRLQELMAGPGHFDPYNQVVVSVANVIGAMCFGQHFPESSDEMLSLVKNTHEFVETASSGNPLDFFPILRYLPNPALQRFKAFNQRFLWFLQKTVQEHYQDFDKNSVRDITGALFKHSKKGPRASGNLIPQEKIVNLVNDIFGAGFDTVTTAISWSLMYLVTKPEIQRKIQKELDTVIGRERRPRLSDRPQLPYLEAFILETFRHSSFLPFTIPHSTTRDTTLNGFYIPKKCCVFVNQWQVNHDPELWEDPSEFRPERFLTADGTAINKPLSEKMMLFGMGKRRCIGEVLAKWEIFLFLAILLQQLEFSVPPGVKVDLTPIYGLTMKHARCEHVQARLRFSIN
The experiment is described as follows: CYP1A2 inhibition (fluorescent substrate CEC). The note with it: read-out: Cyp IC50 1A2. The format is in vitro ADME. As to the method: CYP (Cytochrome P450) enzymes are the major drug metabolizing enzymes present in the liver. The inhibition of CYP enzyme activity (IC50) for each of CYP1A2, CYP2C19, CYP2C9, CYP2D6, CYP3A4(BFC) and CYP3A4(BQ) is determined for compounds, where inhibition of metabolism of a known substrate leads to a decrease in the fluorescence of the metabolized product. The fluorescence of the product is monitored as a function of compound concentration. Compounds are dissolved in DMSO to a concentration of 100 mM. These are diluted 1 μL into 82 μL of acetonitrile. An 11 μL aliquot of this solution is then added to 204 μL of cofactor mix (1.3% NADPH Regeneration system Solution A, 1.04% NADPH Regeneration system Solution B from BD Biosciences, 5% acetonitrile and 0.05% DMSO). These are then serially diluted 1:1 (160 μL to 160 μL co-factor mix) for a total of 10 points. A 10 μL aliquot of this final mixture is dispensed into 384 well assay plates and incubated for 10 minutes at 37° C. […] Assay plates are incubated at 37° C. (CYP1A2-15 min; CYP2C9-45 min; CYP2C19, 2D6 and 3A4-30 min) and read in a Tecan Safire 2 plate reader (CYP1A2, 2C19 and 3A4 409 ex/460 em; CYP2C9 and 2D6 409 ex/530 em). The signal versus compound concentration is used to determine the IC50. The enzymes and substrates for this assay are obtained from BD Biosciences.

T1 sequence (P10721 589-937): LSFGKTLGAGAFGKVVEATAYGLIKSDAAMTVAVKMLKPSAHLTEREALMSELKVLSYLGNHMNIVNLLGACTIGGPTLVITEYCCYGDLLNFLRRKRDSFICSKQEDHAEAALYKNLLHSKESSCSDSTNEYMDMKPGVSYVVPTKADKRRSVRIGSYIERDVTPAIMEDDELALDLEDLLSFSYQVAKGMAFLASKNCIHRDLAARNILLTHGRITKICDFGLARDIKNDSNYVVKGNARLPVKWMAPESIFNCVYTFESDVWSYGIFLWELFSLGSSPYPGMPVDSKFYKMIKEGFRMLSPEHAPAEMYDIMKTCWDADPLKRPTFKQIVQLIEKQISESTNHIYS

On to `CCc1ccc(Nc2ccc(C(=O)c3c[nH]c4ncnc(NC5CCOCC5)c34)c(F)n2)cn1` [Compound P-4116, [6-[(6-ethyl-3-pyridyl)amino]-2-fluoro-3-pyridyl]-[4-(tetrahydropyran-4-ylamino)-7H-pyrrolo[2,3-d]pyrimidin-5-yl]methanone], for which the pIC50 was > 7.00 in experiment [1] and < 5.00 in experiment [2].

For `Cc1ccc(Nc2ccc(C(=O)c3c[nH]c4ncnc(NC5CCCCC5)c34)c(F)n2)cn1` [Compound P-4111, [4-(cyclohexylamino)-7H-pyrrolo[2,3-d]pyrimidin-5-yl]-[2-fluoro-6-[(6-methyl-3-pyridyl)amino]-3-pyridyl]methanone], the pIC50 in experiment [1] is > 6.00; in experiment [2] it was < 5.00.

Consider `COc1ccc(Nc2ccc(C(=O)c3c[nH]c4ncnc(NC(C)C)c34)c(F)n2)cn1` [Compound P-4066, [2-fluoro-6-[(6-methoxy-3-pyridyl)amino]-3-pyridyl]-[4-(isopropylamino)-7H-pyrrolo[2,3-d]pyrimidin-5-yl]methanone], for which the results for the pIC50 in experiment [1] and in experiment [2] were > 8.00 and < 5.00, respectively.

Consider `O=C(c1ccc(NC2CCC(F)(F)CC2)nc1)c1c[nH]c2ncnc(NCC(F)(F)F)c12` [Compound P-4087, [6-[(4,4-difluorocyclohexyl)amino]-3-pyridyl]-[4-(2,2,2-trifluoroethylamino)-7H-pyrrolo[2,3-d]pyrimidin-5-yl]methanone], for which the values for the pIC50 in experiment [1] and in experiment [2] were < 6.00 and < 5.00, respectively.

Consider `CNc1ncnc2[nH]cc(C(=O)c3ccc(Nc4ccc(C5CC5)nc4)nc3F)c12` [Compound P-4094, [6-[(6-cyclopropyl-3-pyridyl)amino]-2-fluoro-3-pyridyl]-[4-(methylamino)-7H-pyrrolo[2,3-d]pyrimidin-5-yl]methanone], for which the pIC50 in experiment [1] was > 7.00; in experiment [2] it was > 5.30.

Turning to `COc1ccc(Nc2ccc(C(=O)c3c[nH]c4ncnc(NC5CCC5)c34)c(F)n2)cn1` [Compound P-4076, [4-(cyclobutylamino)-7H-pyrrolo[2,3-d]pyrimidin-5-yl]-[2-fluoro-6-[(6-methoxy-3-pyridyl)amino]-3-pyridyl]methanone], the pIC50 in experiment [1] is > 7.00; in experiment [2] it was < 5.00.

`CCc1ccc(Nc2ccc(C(=O)c3c[nH]c4ncnc(NCC(F)(F)F)c34)c(F)n2)cn1` [Compound P-4120, [6-[(6-ethyl-3-pyridyl)amino]-2-fluoro-3-pyridyl]-[4-(2,2,2-trifluoroethylamino)-7H-pyrrolo[2,3-d]pyrimidin-5-yl]methanone]: the pIC50 in experiment [1] was > 6.00; in experiment [2] it was > 5.30.

As to `Fc1ccc(Nc2ncc(Cc3c[nH]c4ncc(Cl)cc34)cn2)cc1` [Compound P-3012, [5-(5-Chloro-1H-pyrrolo[2,3-b]pyridin-3-ylmethyl)-pyrimidin-2-yl]-(4-fluoro-phenyl)-amine], the values for the pIC50 in experiment [1] and in experiment [2] were > 6.00 and < 5.00, respectively.

As to `COc1ccc(Nc2ccc(C(=O)c3c[nH]c4ncnc(NCC(F)(F)F)c34)c(F)n2)cn1` [Compound P-4084, [2-fluoro-6-[(6-methoxy-3-pyridyl)amino]-3-pyridyl]-[4-(2,2,2-trifluoroethylamino)-7H-pyrrolo[2,3-d]pyrimidin-5-yl]methanone], the pIC50 was > 6.00 in experiment [1] and < 5.00 in experiment [2].

Turning to `COc1ccc(Nc2ccc(C(=O)c3c[nH]c4ncnc(NCC5CC5)c34)c(F)n2)cn1` [Compound P-4067, [4-(cyclopropylmethylamino)-7H-pyrrolo[2,3-d]pyrimidin-5-yl]-[2-fluoro-6-[(6-methoxy-3-pyridyl)amino]-3-pyridyl]methanone], the results for the pIC50 in experiment [1] and in experiment [2] were > 7.00 and < 5.00, respectively.

For the compound `COc1cncc(Nc2ccc(C(=O)c3c[nH]c4ncnc(NC5CCCCC5)c34)c(F)n2)c1` [Compound P-4104, [4-(cyclohexylamino)-7H-pyrrolo[2,3-d]pyrimidin-5-yl]-[2-fluoro-6-[(5-methoxy-3-pyridyl)amino]-3-pyridyl]methanone], the pIC50 in experiment [1] is < 6.00; in experiment [2] it was < 5.00.

Take `O=C(c1ccc(Nc2ccc(C(F)(F)F)nc2)nc1F)c1c[nH]c2ncnc(NC3CC3)c12` [Compound P-4091, [4-(cyclopropylamino)-7H-pyrrolo[2,3-d]pyrimidin-5-yl]-[2-fluoro-6-[[6-(trifluoromethyl)-3-pyridyl]amino]-3-pyridyl]methanone]: the pIC50 in experiment [1] was > 7.00; in experiment [2], < 5.00.

As to `Clc1ccc(Nc2ncc(Cc3c[nH]c4ncc(Cl)cc34)cn2)cc1` [Compound P-3011, (4-Chloro-phenyl)-[5-(5-chloro-1H-pyrrolo[2,3-b]pyridin-3-ylmethyl)-pyrimidin-2-yl]-amine], the pIC50 in experiment [1] was > 7.00; in experiment [2], < 5.00.

Consider `Cc1ccc(Nc2ccc(C(=O)c3c[nH]c4ncnc(NCC(F)(F)F)c34)c(F)n2)cn1` [Compound P-4112, [2-fluoro-6-[(6-methyl-3-pyridyl)amino]-3-pyridyl]-[4-(2,2,2-trifluoroethylamino)-7H-pyrrolo[2,3-d]pyrimidin-5-yl]methanone], for which the pIC50 in experiment [1] is < 6.00; in experiment [2], > 5.30.

For the compound `O=C(c1ccc(Nc2ccc(C3CC3)nc2)nc1F)c1c[nH]c2ncnc(NC3CC3)c12` [Compound P-4093, [4-(cyclopropylamino)-7H-pyrrolo[2,3-d]pyrimidin-5-yl]-[6-[(6-cyclopropyl-3-pyridyl)amino]-2-fluoro-3-pyridyl]methanone], the pIC50 in experiment [1] was > 7.00; in experiment [2] it was < 5.00.
